Results as given in ChEMBL document CHEMBL1143949, “Antiproliferative effects of 6-anilino-5-chloro-1H-benzo[d]imidazole-4,7-dione in vascular smooth muscle cells” (Bioorg Med Chem, 2008).
pIC50: −log10 of the molar value. Calls of active or inactive are those of the source. The calls are words filed in the database; no cut-off is given here.

What was measured:
[1] = Antiproliferative activity against rat aortic smooth muscle cells; type: functional
HUVEC = assay: Antiproliferative activity against HUVEC; type: functional, cell-based; settings: Homo sapiens
NIH3T3 = assay: Antiproliferative activity against mouse NIH3T3 cells; type: functional, cell-based
[2] = Cell cycle arrest in rat aortic smooth muscle cells assessed as accumulation at G0/G1 phase at 1 uM after 16 hrs; type: functional
[3] = molecular target: Mitogen-activated protein kinase 1 (Rattus norvegicus) (UniProt P63086); assay: Activation of ERK2 phosphorylation in rat aortic smooth muscle cells at 1 uM
Sequence of Mitogen-activated protein kinase 1 (Rattus norvegicus) (P63086 whole entry): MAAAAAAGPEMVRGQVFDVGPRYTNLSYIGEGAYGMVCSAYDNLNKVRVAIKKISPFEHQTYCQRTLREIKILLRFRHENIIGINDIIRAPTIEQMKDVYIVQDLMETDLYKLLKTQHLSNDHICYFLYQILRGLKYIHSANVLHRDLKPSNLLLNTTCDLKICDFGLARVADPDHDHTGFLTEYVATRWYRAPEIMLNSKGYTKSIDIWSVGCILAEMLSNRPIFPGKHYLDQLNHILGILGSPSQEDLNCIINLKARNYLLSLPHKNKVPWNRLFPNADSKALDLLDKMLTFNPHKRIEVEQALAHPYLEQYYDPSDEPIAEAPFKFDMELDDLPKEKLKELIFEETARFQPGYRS

Rattus norvegicus [4] = species on record: Rattus norvegicus; assay: Inhibition of PDGF and FBS-induced migration of rat aortic smooth muscle cells by transwell plate assay; type: functional
[5] = Cell cycle arrest in rat smooth muscle cells assessed as accumulation at G2/M phase at 1 uM after 16 hrs; type: functional, cell-based
Rattus norvegicus [6] = species on record: Rattus norvegicus; assay: Induction of apoptosis in rat aortic smooth muscle cells assessed as caspase 3 activation at 1 uM; type: functional
Rattus norvegicus [7] = species on record: Rattus norvegicus; assay: Effect on PDGF and serum-induced cyclin E expression in rat aortic smooth muscle cells at 1 uM; type: functional
[8] = Cell cycle arrest in rat aortic smooth muscle cells assessed as accumulation at G1 phase at 1 uM after 16 hrs; type: functional
[9] = molecular target: Mitogen-activated protein kinase 3 (Rattus norvegicus) (UniProt P21708); assay: Activation of ERK1 phosphorylation in rat aortic smooth muscle cells at 1 uM
Sequence of Mitogen-activated protein kinase 3 (Rattus norvegicus) (P21708 whole entry): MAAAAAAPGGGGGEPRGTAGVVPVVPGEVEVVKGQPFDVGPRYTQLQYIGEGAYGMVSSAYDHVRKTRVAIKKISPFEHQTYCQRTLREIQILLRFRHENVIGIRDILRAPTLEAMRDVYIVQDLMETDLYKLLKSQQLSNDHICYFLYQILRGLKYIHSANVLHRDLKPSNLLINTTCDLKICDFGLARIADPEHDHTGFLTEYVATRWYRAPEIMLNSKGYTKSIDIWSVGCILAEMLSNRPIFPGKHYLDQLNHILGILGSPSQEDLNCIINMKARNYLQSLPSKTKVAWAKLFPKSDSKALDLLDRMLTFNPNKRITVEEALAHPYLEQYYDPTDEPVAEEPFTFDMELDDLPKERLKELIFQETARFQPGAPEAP

[10] = molecular target: MAP kinase p38 (Homo sapiens) (UniProt O15264+Q15759+Q16539+P53778); assay: Activation of p38 phosphorylation in rat aortic smooth muscle cells at 1 uM
[11] = Cell cycle arrest in rat aortic smooth muscle cells assessed as accumulation at G2 phase at 1 uM after 16 hrs; type: functional
[12] = Cell cycle arrest in rat aortic smooth muscle cells assessed as accumulation at S phase at 1 uM after 16 hrs; type: functional

SMILES | pIC50 [1] | pIC50 (HUVEC) | pIC50 (NIH3T3) | further results
Cc1nc2c([nH]1)C(=O)/C(=N/c1ccc(Cl)cc1)C(Cl)=C2O | 5.55 | 6.10 | 5.89 | 
Cc1nc2c([nH]1)C(=O)/C(=N/c1ccc(C(F)(F)F)cc1)C(Cl)=C2O | 6.22 | 6.22 | 5.96 | 
Cc1nc2c([nH]1)C(=O)/C(=N/c1ccc(F)cc1F)C(Cl)=C2O | 5.92 | 6.00 | 6.10 | 
Cc1nc2c([nH]1)C(=O)/C(=N/c1ccc(Cl)cc1Cl)C(Cl)=C2O | 6.10 | 6.30 | 5.92 | 
Cc1nc2c([nH]1)C(=O)/C(=N/c1ccc(F)c(F)c1F)C(Cl)=C2O | 6.10 | 6.30 | 5.80 | 
Cc1nc2c([nH]1)C(=O)/C(=N/c1cccc(Br)c1)C(Cl)=C2O | 6.00 | 6.10 | 6.10 | 
Cc1nc2c([nH]1)C(=O)/C(=N/c1cccc(Cl)c1Cl)C(Cl)=C2O | 6.22 | 6.52 | 5.64 | 
Cc1nc2c([nH]1)C(=O)/C(=N/c1ccccc1)C(Cl)=C2O | 6.10 | 5.92 | 5.28 | Activity [2]: 56.4%; Activity [3]: Active; Activity (Rattus norvegicus [4]): Active; Activity [5]: 20.1%; Activity (Rattus norvegicus [6]): Active; Activity (Rattus norvegicus [7]): inactive; Activity [8]: inactive; Activity [9]: Active; Activity [10]: Active; Activity [11]: inactive; Activity [12]: 23.3%
Cc1nc2c([nH]1)C(=O)/C(=N/c1cccc(Cl)c1)C(Cl)=C2O | 6.05 | 6.22 | 5.80 | 
Cc1nc2c([nH]1)C(=O)/C(=N/c1ccc(I)cc1)C(Cl)=C2O | 6.00 | 5.70 | 6.22 | 
Cc1nc2c([nH]1)C(=O)/C(=N/c1ccc(F)cc1)C(Cl)=C2O | 5.52 | 6.00 | 5.92 | 
Cc1ccc(NC2=C(Cl)C(=O)c3nc(C)[nH]c3C2=O)cc1 | 6.10 | 6.00 | 5.80 | 
